This note sets out measurements from patent publication US20240150293A1, “SPIROCYCLOHEXANE DERIVATIVES, PHARMACEUTICAL COMPOSITIONS CONTAINING THEM AND THEIR USES AS ANTI-APOPTOTIC INHIBITORS” (LES LABORATOIRES SERVIER, priority 2021, published 2024).

Usually Ki stands for a dissociation constant, usually derived from enzyme kinetics or from competition with a known ligand.

Sequence of Mcl-1 protein (Q07820 whole entry): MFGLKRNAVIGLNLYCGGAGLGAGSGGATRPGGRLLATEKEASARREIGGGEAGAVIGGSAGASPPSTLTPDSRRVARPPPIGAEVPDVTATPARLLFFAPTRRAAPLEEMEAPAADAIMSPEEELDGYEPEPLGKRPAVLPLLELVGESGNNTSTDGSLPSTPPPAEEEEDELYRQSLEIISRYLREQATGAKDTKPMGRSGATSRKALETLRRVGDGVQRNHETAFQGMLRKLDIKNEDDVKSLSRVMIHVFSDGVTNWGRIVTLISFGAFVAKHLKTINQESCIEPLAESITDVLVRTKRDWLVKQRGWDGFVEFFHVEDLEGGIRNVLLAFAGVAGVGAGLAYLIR

For the test, the target named is Mcl-1 protein (UniProtKB Q07820) (Homo sapiens (Human), UniProt Q07820). Put plainly: Inhibition of Mcl-1 by the fluorescence polarisation assay (Example A, Method A). In kind it is binding. The settings on record: fluorescence polarization assay. Summed up:
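Protein (5 nM) and fluorescein-tagged peptide tracer (1 nM) incubated with 11-point compound series for 2 h at room temperature in HEPES/NaCl/Tween 20 buffer, pH 7.4, 5% DMSO. Displacement read as decrease in polarisation; IC50 fitted by 4-parameter logistic, converted to Ki (cKi or eKi).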
(In general: Fluorescence polarisation rises when a labelled molecule tumbles more slowly, as on binding a larger partner.)
Regarding `CCC1=C(C)[C@]2(CC[C@@](Nc3cccc(Cl)c3)(C(=O)O)CC2)c2ccccc21` [Example 206, (1s,4s)-4-(3-chloroanilino)-3′-ethyl-2′-methylspiro[cyclohexane-1,1′-indene]-4-carboxylic acid], the Ki came out at 4.68 µM.
With `O=C(O)[C@]1(Nc2cccc(Br)c2)CC[C@@]2(CC1)C(c1ccccc1)=Cc1ccccc12` [Example 209, (1r,4r)-4-(3-bromoanilino)-2′-phenylspiro[cyclohexane-1,1′-indene]-4-carboxylic acid] the figure was 35 µM; with `O=C(O)[C@]1(Nc2cccc(Br)c2)CC[C@@]2(CC1)c1ccccc1C[C@@H]2c1ccccc1` [Example 211, (1r,2′R,4R)-4-(3-bromoanilino)-2′-phenyl-2′,3′-dihydrospiro[cyclohexane-1,1′-indene]-4-carboxylic acid], 11 µM; with `Cn1cc(C2Cc3ccccc3[C@]23CC[C@@](Nc2cccc(Br)c2)(C(=O)O)CC3)cn1` (some centres unmarked) [Example 212, (1r,4r)-4-(3-bromoanilino)-2′-(1-methyl-1H-pyrazol-4-yl)-2′,3′-dihydrospiro[cyclohexane-1,1′-indene]-4-carboxylic acid], 9.47 µM.
The same measure for `Cn1cc(C2Cc3ccccc3[C@]23CC[C@](Nc2cccc(Br)c2)(C(=O)O)CC3)cn1` (some centres unmarked) [Example 213, (1s,4s)-4-(3-bromoanilino)-2′-(1-methyl-1H-pyrazol-4-yl)-2′,3′-dihydrospiro[cyclohexane-1,1′-indene]-4-carboxylic acid]: 87.3 µM.
In the case of `Cc1ccccc1C1Cc2ccccc2C12CCC(Nc1cccc(Br)c1)(C(=O)O)CC2` (centres unmarked) [Example 214, 4-(3-bromoanilino)-2′-(2-methylphenyl)-2′,3′-dihydrospiro[cyclohexane-1,1′-indene]-4-carboxylic acid], the Ki was found to be 7.9 µM.
`Cc1cccc(C2Cc3ccccc3C23CCC(Nc2cccc(Br)c2)(C(=O)O)CC3)c1` (centres unmarked) [Example 215, 4-(3-bromoanilino)-2′-(3-methylphenyl)-2′,3′-dihydrospiro[cyclohexane-1,1′-indene]-4-carboxylic acid]: the Ki turned out to be 0.846 µM.
The same measure for `Cc1ccc(C2Cc3ccccc3C23CCC(Nc2cccc(Br)c2)(C(=O)O)CC3)cc1` (centres unmarked) [Example 216, 4-(3-bromoanilino)-2′-(4-methylphenyl)-2′,3′-dihydrospiro[cyclohexane-1,1′-indene]-4-carboxylic acid]: 1.74 µM; for `COc1ccc([C@@H]2Cc3ccccc3[C@]23CC[C@@](Nc2cccc(Br)c2)(C(=O)O)CC3)cc1` [Example 217, (1r,2′S,4S)-4-(3-bromoanilino)-2′-(4-methoxyphenyl)-2′,3′-dihydrospiro[cyclohexane-1,1′-indene]-4-carboxylic acid]: 0.484 µM.
In the case of `COc1ccc([C@H]2Cc3ccccc3[C@]23CC[C@@](Nc2cccc(Br)c2)(C(=O)O)CC3)cc1` [Example 218, (1r,2′R,4R)-4-(3-bromoanilino)-2′-(4-methoxyphenyl)-2′,3′-dihydrospiro[cyclohexane-1,1′-indene]-4-carboxylic acid], the Ki amounted to 13.4 µM.
With `COc1cccc([C@@H]2Cc3ccccc3[C@]23CC[C@@](Nc2cccc(Br)c2)(C(=O)O)CC3)c1` [Example 219, (1r,2′S,4S)-4-(3-bromoanilino)-2′-(3-methoxyphenyl)-2′,3′-dihydrospiro[cyclohexane-1,1′-indene]-4-carboxylic acid] the figure was 0.381 µM; with `COc1cccc([C@H]2Cc3ccccc3[C@]23CC[C@@](Nc2cccc(Br)c2)(C(=O)O)CC3)c1` [Example 220, (1r,2′R,4R)-4-(3-bromoanilino)-2′-(3-methoxyphenyl)-2′,3′-dihydrospiro[cyclohexane-1,1′-indene]-4-carboxylic acid], 7.23 µM.
With `O=C(O)C1(Nc2cccc(Br)c2)CCC2(CC1)c1ccccc1CC2c1cccc(Cl)c1` (centres unmarked) [Example 221, 4-(3-bromoanilino)-2′-(3-chlorophenyl)-2′,3′-dihydrospiro[cyclohexane-1,1′-indene]-4-carboxylic acid] the figure was 0.995 µM; with `O=C(O)C1(Nc2cccc(Br)c2)CCC2(CC1)c1ccccc1CC2c1ccc(Cl)cc1` (centres unmarked) [Example 222, 4-(3-bromoanilino)-2′-(4-chlorophenyl)-2′,3′-dihydrospiro[cyclohexane-1,1′-indene]-4-carboxylic acid], 2.26 µM; with `COc1ccc(C2=Cc3ccccc3[C@]23CC[C@](Nc2cccc(Cl)c2)(C(=O)O)CC3)cc1C` [Example 224, (1r,4r)-4-(3-chloroanilino)-2′-(4-methoxy-3-methylphenyl)spiro[cyclohexane-1,1′-indene]-4-carboxylic acid], 22.3 µM.
The same measure for `COc1ccc(C2=Cc3ccccc3[C@]23CC[C@@](Nc2cccc(Cl)c2)(C(=O)O)CC3)cc1C` [Example 225, (1s,4s)-4-(3-chloroanilino)-2′-(4-methoxy-3-methylphenyl)spiro[cyclohexane-1,1′-indene]-4-carboxylic acid]: 1.02 µM; for `COc1ccc(C2=Cc3ccccc3[C@]23CC[C@](Nc2cccc(Cl)c2)(C(=O)O)CC3)cc1Cl` [Example 226, (1r,4r)-4-(3-chloroanilino)-2′-(3-chloro-4-methoxyphenyl)spiro[cyclohexane-1,1′-indene]-4-carboxylic acid]: 23.7 µM.
Regarding `COc1ccc(C2=Cc3ccccc3[C@]23CC[C@@](Nc2cccc(Cl)c2)(C(=O)O)CC3)cc1Cl` [Example 227, (1s,4s)-4-(3-chloroanilino)-2′-(3-chloro-4-methoxyphenyl)spiro[cyclohexane-1,1′-indene]-4-carboxylic acid], the inhibition constant (Ki) amounted to 1.19 µM.
With `COc1ccc(C2=Cc3ccccc3[C@]23CC[C@](Nc2cccc(Cl)c2)(C(=O)O)CC3)c(C)c1` [Example 228, (1r,4r)-4-(3-chloroanilino)-2′-(4-methoxy-2-methylphenyl)spiro[cyclohexane-1,1′-indene]-4-carboxylic acid], the Ki came to 14.7 µM.
For `COc1ccc(C2=Cc3ccccc3[C@]23CC[C@@](Nc2cccc(Cl)c2)(C(=O)O)CC3)c(C)c1` [Example 229, (1s,4s)-4-(3-chloroanilino)-2′-(4-methoxy-2-methylphenyl)spiro[cyclohexane-1,1′-indene]-4-carboxylic acid], the Ki came to 1.34 µM.
The same measure for `COc1ccc(C2=Cc3ccccc3[C@]23CC[C@@](Nc2cccc(Cl)c2)(C(=O)O)CC3)cc1` [Example 230, (1s,4s)-4-(3-chloroanilino)-2′-(4-methoxyphenyl)spiro[cyclohexane-1,1′-indene]-4-carboxylic acid]: 1.06 µM; for `Cc1cc(C2Cc3ccccc3C23CCC(Nc2cccc(Br)c2)(C(=O)O)CC3)cs1` (centres unmarked) [Example 232, 4-(3-bromoanilino)-2′-(5-methylthiophen-3-yl)-2′,3′-dihydrospiro[cyclohexane-1,1′-indene]-4-carboxylic acid]: 0.578 µM; for `Cc1ccc(C2Cc3ccccc3C23CCC(Nc2cccc(Br)c2)(C(=O)O)CC3)o1` (centres unmarked) [Example 239, 4-(3-bromoanilino)-2′-(5-methylfuran-2-yl)-2′,3′-dihydrospiro[cyclohexane-1,1′-indene]-4-carboxylic acid]: 0.301 µM.
The same measure for `COc1ccc([C@@H]2Cc3ccccc3[C@]23CC[C@@](Nc2cccc(Cl)c2)(C(=O)O)CC3)cc1` [Example 240, (1r,2′S,4S)-4-(3-chloroanilino)-2′-(4-methoxyphenyl)-2′,3′-dihydrospiro[cyclohexane-1,1′-indene]-4-carboxylic acid]: 0.217 µM; for `COc1ccc([C@H]2Cc3ccccc3[C@]23CC[C@@](Nc2cccc(Cl)c2)(C(=O)O)CC3)cc1` [Example 241, (1r,2′R,4R)-4-(3-chloroanilino)-2′-(4-methoxyphenyl)-2′,3′-dihydrospiro[cyclohexane-1,1′-indene]-4-carboxylic acid]: 4.35 µM; for `O=C(O)C1(Nc2cccc(Br)c2)CCC2(CC1)c1ccccc1CC2c1ccc(OCc2ccccc2)cc1` (centres unmarked) [Example 244, 2′-[4-(benzyloxy)phenyl]-4-(3-bromoanilino)-2′,3′-dihydrospiro[cyclohexane-1,1′-indene]-4-carboxylic acid]: 0.779 µM.
Turning to `O=C(O)[C@]1(Nc2cccc(Cl)c2)CC[C@]2(CC1)C(c1coc3ccccc13)=Cc1ccccc12` [Example 245, (1s,4s)-2′-(1-benzofuran-3-yl)-4-(3-chloroanilino)spiro[cyclohexane-1,1′-indene]-4-carboxylic acid], the Ki was 4.3 µM.
With `COc1ccc(Cl)c(C2=Cc3ccccc3[C@]23CC[C@@](Nc2cccc(Cl)c2)(C(=O)O)CC3)c1` [Example 246, (1s,4s)-4-(3-chloroanilino)-2′-(2-chloro-5-methoxyphenyl)spiro[cyclohexane-1,1′-indene]-4-carboxylic acid] the figure was 4.2 µM; with `O=C(O)[C@]1(Nc2cccc(Cl)c2)CC[C@]2(CC1)C(c1ccc3occc3c1)=Cc1ccccc12` [Example 247, (1s,4s)-2′-(1-benzofuran-5-yl)-4-(3-chloroanilino)spiro[cyclohexane-1,1′-indene]-4-carboxylic acid], 1.22 µM.
With `COc1cccc(C)c1C1=Cc2ccccc2[C@]12CC[C@@](Nc1cccc(Cl)c1)(C(=O)O)CC2` [Example 248, (1s,4s)-4-(3-chloroanilino)-2′-(2-methoxy-6-methylphenyl)spiro[cyclohexane-1,1′-indene]-4-carboxylic acid] the figure was 28.2 µM; with `Cc1cccc(C)c1C1=Cc2ccccc2[C@]12CC[C@@](Nc1cccc(Cl)c1)(C(=O)O)CC2` [Example 249, (1s,4s)-4-(3-chloroanilino)-2′-(2,6-dimethylphenyl)spiro[cyclohexane-1,1′-indene]-4-carboxylic acid], 19 µM.
On to `COc1cccc(Cl)c1C1=Cc2ccccc2[C@]12CC[C@@](Nc1cccc(Cl)c1)(C(=O)O)CC2` [Example 250, (1s,4s)-4-(3-chloroanilino)-2′-(2-chloro-6-methoxyphenyl)spiro[cyclohexane-1,1′-indene]-4-carboxylic acid], for which the Ki is 13.9 µM.
